Reference: US8129412B2, “Hydantoin derivatives useful as metalloproteinase inhibitors” (AstraZeneca AB, priority 2004, dated 2012)

Biological target: T1, Recombinant human proMMP13 (collagenase 3) (Homo sapiens, UniProt P45452)
T1 construct: made in house
Assay: Collagenase 3 (MMP13) enzyme inhibition assay with fluorogenic peptide substrate
Type: biochemical
Conditions: APMA-activated MMP13, 4-5 hours at 35° C., pH 7.5, fluorescence λex 328 nm / λem 393 nm
Description: Collagenase 3 (MMP13) inhibitory activity may be assessed, for example, using the procedure set out below:—
Activity is determined by measuring the fluorescence at λex 328 nm and λem 393 nm.

Row | IC50 [nM] | Structure (SMILES)
1 | 8.4 | CC[C@]1(CS(=O)(=O)N2CCC(Oc3ccc(OCC(F)(F)F)cc3)CC2)NC(=O)NC1=O [Example 2, (5S)-5-ethyl-5-[({4-[4-(2,2,2-trifluoroethoxy)phenoxy]piperidin-1-yl}sulfonyl)methyl]imidazolidine-2,4-dione]
2 | 5.5 | CCC1(CS(=O)(=O)N2CCC(Oc3ccc(OCCC(F)(F)F)cc3)CC2)NC(=O)NC1=O (stereo not drawn) [Example 8]
3 | 1.9 | CC[C@]1(CS(=O)(=O)N2CCC(Oc3ccc(OCC(F)(F)C(F)(F)F)cc3)CC2)NC(=O)NC1=O [Example 12, (5S)-5-ethyl-5-[({4-[4-(2,2,3,3,3-pentafluoropropoxy)phenoxy]-piperidin-1-yl}sulphonyl)methyl]imidazolidine-2,4-dione]

The remaining lines, values behind:

Row | Structure (SMILES) | IC50 [nM]
4 | CCC1(CS(=O)(=O)N2CCC(Oc3ccc(OC(F)(F)C(F)F)cc3)CC2)NC(=O)NC1=O (stereo not drawn) [Example 4, 5S-ethyl-5-[({4-[4-(1,1,2,2-tetrafluoroethoxy)phenoxy]piperidin-yl}sulfonyl)methyl]imidazolidine-2,4-dione] | 4.9
5 | CC[C@]1(CS(=O)(=O)N2CCC(Oc3ccc(OC(F)(F)C(F)(F)F)cc3)CC2)NC(=O)NC1=O [Example 6, (5S)-5-ethyl-5-[({4-[4-(pentafluoroethoxy)phenoxy]piperidin-1-yl}sulfonyl)methyl]imidazolidine-2,4-dione] | 13
6 | CC[C@]1(CS(=O)(=O)N2CCC(Oc3ccc(OCC(F)(F)C(F)F)cc3)CC2)NC(=O)NC1=O [Example 10, (5S)-5-ethyl-5-[({4-[4-(2,2,3,3-tetrafluoropropoxy)phenoxy]-piperidin-1-yl}sulphonyl)methyl]imidazolidine-2,4-dione] | 0.7
